Laboratory results as given in publication PMC7031696 (Cell chemical biology, 2019).
In brackets after ≈: the same amount, converted by molar mass. Where two headings read alike, the source gives them in different places.

Tests used:
[1] = 1.5 h, 500 μM, pH 7.4
[2] = test system: Plasmodium falciparum 3D7-A10 parasites; test: Stage specificity assay (8-h exposure of synchronized stages, IC50^8h); format: cell-based; conditions: for IC50: Plasmodium falciparum
[3] = test system: asynchronous 3D7-A10 parasite cultures; test: Standard 72-h exposure asexual blood stage susceptibility assay (IC50^72h); format: cell-based, Plasmodium falciparum; conditions: Plasmodium falciparum, 3D7, 72 h, read-out: Overall (72hr assay) Mean IC50 (IC50^72h)
[4] = test system: 3D7-MR4 trophozoite parasite-infected RBCs; test: Metabolomic profiling (hydrophilic metabolite changes, UHPLC-MS); format: cell-based, Plasmodium falciparum

## Cc1cc(Nc2ccc(OCc3ccccc3)cc2)nc2cc(O)ccc12 [MMV007181]
[1]
  Ratio fil./std. (absorbance filtrate/standard): 0.69
[2]; 3D7-A10
  Ratio lowest IC50 8hr/IC50 72hr: 3.0
[2]; 8-h exposures, survival curves
  killing in stage specificity assay: incomplete killing at all asexual blood stages
[2]; 3D7, read-out: Early rings IC50 (IC50^8h), 8-h exposure 0–8 hr, bound given in μM
  IC50: > 25 µM
[2]; 3D7, read-out: Early trophozoites Mean IC50 (IC50^8h), 8-h exposure 16–24 hr, 3D7-A10, survival at 60 h
  IC50: 0.253 µM
[2]; 3D7, read-out: Late rings IC50 (IC50^8h), 8-h exposure 8–16 hr, bound given in μM
  IC50: > 25 µM
[2]; 3D7, read-out: Late trophozoites Mean IC50 (IC50^8h), 8-h exposure 24–32 hr, 3D7-A10, survival at 60 h
  IC50: 0.274 µM
[2]; 3D7, read-out: Schizonts Mean IC50 (IC50^8h), 8-h exposure 32–40 hr, 3D7-A10, survival at 60 h
  IC50: 0.57 µM
[2]; period when the parasite was most susceptible (lowest IC50^8h)
  Stage of peak activity (Figure 6): trophozoites
[2]; stage(s) with the lowest IC50^8h
  Peak Activity (Table S1): Trophs
physchem; pH 7.4
  solubility at 1.5 h: > 100 µM
physchem; pH 7.4, aqueous buffer, kinetic from dmso stock
  solubility at 1.5 h: 100 to 500 µM (≈ 35.6 to 178 µg/mL)
[3]
  IC50: 84.9 nM
[4]; 10 × IC50^72h, 2.5 hr, trophozoites
  peptide levels (hemoglobin catabolism signature): decreased peptide levels
[4]; metabolite 3-phosphoglycerate, log2 fold change
  Log2(fold changes) 3-phosphoglycerate: -0.1714
[4]; metabolite 4-Pyridoxic acid, log2 fold change
  Log2(fold changes) 4-Pyridoxic acid: -0.2247
[4]; metabolite 4-aminobutyrate, log2 fold change
  Log2(fold changes) 4-aminobutyrate: -0.0986
[4]; metabolite 4-phosphopantetheine, log2 fold change
  Log2(fold changes) 4-phosphopantetheine: 0.6961
[4]; metabolite 4-phosphopantothenate, log2 fold change
  Log2(fold changes) 4-phosphopantothenate: -0.6638
[4]; metabolite 5-aminopentanoic acid, log2 fold change
  Log2(fold changes) 5-aminopentanoic acid: -0.2294
[4]; metabolite 5-methyl-THF, log2 fold change
  Log2(fold changes) 5-methyl-THF: 0.0000
[4]; metabolite 5-phosphoribosyl-1-pyrophosphate, log2 fold change
  Log2(fold changes) 5-phosphoribosyl-1-pyrophosphate: 0.0000
[4]; metabolite 6-phospho-D-gluconate, log2 fold change
  Log2(fold changes) 6-phospho-D-gluconate: -0.1453
[4]; metabolite HVDD
  Log2(fold change) HVDD: -4.4739
[4]; metabolite Hydroxyisocaproic acid
  Log2(fold change) Hydroxyisocaproic acid: 0.0000
[4]; metabolite IDP
  Log2(fold change) IDP: -0.0045
[4]; metabolite IMP
  Log2(fold change) IMP: -0.1201
[4]; metabolite Inositol
  Log2(fold change) Inositol: 0.0000
[4]; metabolite Isopentyl-PP
  Log2(fold change) Isopentyl-PP: -0.4346
[4]; metabolite L-arginino-succinate
  Log2(fold change) L-arginino-succinate: -0.6665
[4]; metabolite LD
  Log2(fold change) LD: -0.1484
[4]; metabolite Myristoyl/tetradecanoyl-CoA
  Log2(fold change) Myristoyl/tetradecanoyl-CoA: 0.0000
[4]; metabolite N-Acetyl-L-alanine
  Log2(fold change) N-Acetyl-L-alanine: -0.3632
[4]; metabolite N-acetyl-L-ornithine
  Log2(fold change) N-acetyl-L-ornithine: -2.0310
[4]; metabolite N-acetyl-glucosamine-1/6-phosphate
  Log2(fold change) N-acetyl-glucosamine-1/6-phosphate: -0.0060
[4]; metabolite N-acetyl-glutamate
  Log2(fold change) N-acetyl-glutamate: 0.1987
[4]; metabolite N-acetyl-glutamine
  Log2(fold change) N-acetyl-glutamine: 0.1663
[4]; metabolite N-carbamoyl-L-aspartate
  Log2(fold change) N-carbamoyl-L-aspartate: -0.1286
[4]; metabolite NAD+
  Log2(fold change) NAD+: -0.1335
[4]; metabolite NADH
  Log2(fold change) NADH: 2.9716
[4]; metabolite NADP+
  Log2(fold change) NADP+: -0.2177
[4]; metabolite NADPH
  Log2(fold change) NADPH: 2.7260
[4]; metabolite O-acetyl-L-serine
  Log2(fold change) O-acetyl-L-serine: -0.0650
[4]; metabolite Octoluse 8/1P
  Log2(fold change) Octoluse 8/1P: -0.2583
[4]; metabolite Octoluse Bisphosphate
  Log2(fold change) Octoluse Bisphosphate: -0.7020
[4]; metabolite PD
  Log2(fold change) PD: -3.3017
[4]; metabolite PE
  Log2(fold change) PE: -2.9801
[4]; metabolite PEE
  Log2(fold change) PEE: -2.9268
[4]; metabolite PEEK
  Log2(fold change) PEEK: -4.7351
[4]; metabolite PVNF
  Log2(fold change) PVNF: -4.5493
[4]; metabolite Pyroglutamic acid
  Log2(fold change) Pyroglutamic acid: 0.2482
[4]; metabolite Pyrophosphate
  Log2(fold change) Pyrophosphate: 0.0000
[4]; metabolite Ribose-5-phosphate
  Log2(fold change) Ribose-5-phosphate: -0.4059
[4]; metabolite S-adenosyl-L-homocysteine
  Log2(fold change) S-adenosyl-L-homocysteine: -0.1192
[4]; metabolite S-adenosyl-L-methioninamine
  Log2(fold change) S-adenosyl-L-methioninamine: -3.2130
[4]; metabolite S-adenosyl-L-methionine
  Log2(fold change) S-adenosyl-L-methionine: -0.1206
[4]; metabolite S-methyl-5'-thioadenosine
  Log2(fold change) S-methyl-5'-thioadenosine: 0.4702
[4]; metabolite SD
  Log2(fold change) SD: -0.6167
[4]; metabolite SDL
  Log2(fold change) SDL: 0.0000
[4]; metabolite SID
  Log2(fold change) SID: -0.9911
[4]; metabolite Sedoheptulose bisphosphate
  Log2(fold change) Sedoheptulose bisphosphate: -0.4907
[4]; metabolite Thiamine pyrophosphate
  Log2(fold change) Thiamine pyrophosphate: -0.0717
[4]; metabolite UDP-D-glucose, log2 fold change
  Log2(fold changes) UDP-D-glucose: 0.0982
[4]; metabolite UDP-D-glucuronate, log2 fold change
  Log2(fold changes) UDP-D-glucuronate: -0.0548
[4]; metabolite UDP-N-acetyl-glucosamine, log2 fold change
  Log2(fold changes) UDP-N-acetyl-glucosamine: -0.0365
[4]; metabolite UDP, log2 fold change
  Log2(fold changes) UDP: -0.2952
[4]; metabolite UMP, log2 fold change
  Log2(fold changes) UMP: -0.1123
[4]; metabolite UTP, log2 fold change
  Log2(fold changes) UTP: -0.0747
[4]; metabolite hydroxyphenylpyruvate
  Log2(fold change) hydroxyphenylpyruvate: 0.0000
[4]; metabolite hydroxyproline/Aminolevulinate
  Log2(fold change) hydroxyproline/Aminolevulinate: -0.1078
[4]; metabolite hypoxanthine
  Log2(fold change) hypoxanthine: 0.1087
[4]; metabolite indole
  Log2(fold change) indole: -0.0870
[4]; metabolite inosine
  Log2(fold change) inosine: -0.1121
[4]; metabolite isoleucine
  Log2(fold change) isoleucine: 0.0000
[4]; metabolite lactate
  Log2(fold change) lactate: -0.3282
[4]; metabolite leucine
  Log2(fold change) leucine: -0.3120
[4]; metabolite lysine
  Log2(fold change) lysine: -2.3197
[4]; metabolite malate
  Log2(fold change) malate: -0.7445
[4]; metabolite maleic acid
  Log2(fold change) maleic acid: -0.7914
[4]; metabolite methionine
  Log2(fold change) methionine: 0.1152
[4]; metabolite myo-inositol
  Log2(fold change) myo-inositol: -0.3555
[4]; metabolite nicotinamide mononucleotide
  Log2(fold change) nicotinamide mononucleotide: -0.2883
[4]; metabolite nicotinate
  Log2(fold change) nicotinate: 0.1126
[4]; metabolite ornithine
  Log2(fold change) ornithine: -0.1929
[4]; metabolite orotate
  Log2(fold change) orotate: -0.4250
[4]; metabolite orotidine-5'-phosphate
  Log2(fold change) orotidine-5'-phosphate: -1.5378
[4]; metabolite oxaloacetate
  Log2(fold change) oxaloacetate: -0.5706
[4]; metabolite p-aminobenzoate
  Log2(fold change) p-aminobenzoate: 0.0000
[4]; metabolite p-hydroxybenzoate
  Log2(fold change) p-hydroxybenzoate: 0.0981
[4]; metabolite pantothenate
  Log2(fold change) pantothenate: 0.1598
[4]; metabolite phenylalanine
  Log2(fold change) phenylalanine: -0.4038
[4]; metabolite phenylpyruvate
  Log2(fold change) phenylpyruvate: 0.0000
[4]; metabolite phosphoenolpyruvate
  Log2(fold change) phosphoenolpyruvate: 0.0294
[4]; metabolite prephenate
  Log2(fold change) prephenate: -0.1912
[4]; metabolite proline
  Log2(fold change) proline: -0.4365
[4]; metabolite pyridoxine
  Log2(fold change) pyridoxine: -0.1437
[4]; metabolite pyruvate
  Log2(fold change) pyruvate: -0.7096
[4]; metabolite riboflavin
  Log2(fold change) riboflavin: 0.3011
[4]; metabolite ribose
  Log2(fold change) ribose: -0.0087
[4]; metabolite ribose-phosphate
  Log2(fold change) ribose-phosphate: -0.7988
[4]; metabolite ribulose-5-phosphate
  Log2(fold change) ribulose-5-phosphate: -0.4319
[4]; metabolite serine
  Log2(fold change) serine: -0.2012
[4]; metabolite sn-glycerol-3-phosphate
  Log2(fold change) sn-glycerol-3-phosphate: 0.0673
[4]; metabolite succinate/Methylmalonic acid
  Log2(fold change) succinate/Methylmalonic acid: -0.1908
[4]; metabolite succinyl-CoA/methylmalonyl-CoA
  Log2(fold change) succinyl-CoA/methylmalonyl-CoA: 0.0000
[4]; metabolite taurine
  Log2(fold change) taurine: 0.0434
[4]; metabolite thiamine
  Log2(fold change) thiamine: -0.2929
[4]; metabolite threonine/homoserine
  Log2(fold change) threonine/homoserine: -0.5619
[4]; metabolite thymidine
  Log2(fold change) thymidine: 0.0000
[4]; metabolite thymine, log2 fold change
  Log2(fold changes) thymine: 0.0000
[4]; metabolite trehalose-6-Phosphate, log2 fold change
  Log2(fold changes) trehalose-6-Phosphate: 0.0000
[4]; metabolite tryptophan, log2 fold change
  Log2(fold changes) tryptophan: -0.4056
[4]; metabolite tyrosine, log2 fold change
  Log2(fold changes) tyrosine: -0.2656
[4]; metabolite uridine, log2 fold change
  Log2(fold changes) uridine: 0.0000
